Experimental data: patent US9546383B2, “Human pluripotent embryonic stem cells produced by nuclear transfer using a somatic cell nucleus treated with HVJ-E extract and an oocyte from a donor cycle that produced 15 or fewer oocytes” (priority 2013, dated 2017)
Where a SMILES comes first, the peptide text is derived from it. [ ]: non-standard residue; d: D form. d(hArg(Et2)) = CCN=C(NCC)NCCCC[C@@H](N)C(=O)O; hArg(Et2) = CCN=C(NCC)NCCCC[C@H](N)C(=O)O; dPhe(4-Cl) = N[C@H](Cc1ccc(Cl)cc1)C(=O)O; d2Nal = N[C@H](Cc1ccc2ccccc2c1)C(=O)O; d3Pal = N[C@H](Cc1cccnc1)C(=O)O

Assays:
human SCNT embryos [1] = assay: Human SCNT embryo development and NT-ESC derivation by GnRH agonist or antagonist treatment of oocyte donor; type: cell-based; conditions: oocytes from treated donors
Protocol: A retrospective analysis of ovarian stimulation procedures was conducted in order to determine the effect of the number of oocytes retrieved per cycle on human SCNT embryo development and NT-ESC derivation outcomes. Oocyte donation cycles were divided into three groups based on the range of collected mature MII oocytes—10 or fewer oocytes per cycle (5 donors), between 11 to 15 oocytes (2 donors) and more than 16 oocytes per cycle (3 donors). While survival after enucleation, fusion, pronuclear formation and cleavage of SCNT embryos were similar between these groups, more embryos derived from the donors producing ≧16 MII oocytes/cycle arrested after the 8-cell stage than the other two groups (FIG. 5A). In addition, the quality of SCNT blastocysts also negatively correlated with the number of collected oocytes per cycle. […] The peak estradiol (E2) level measured in blood of egg donors prior to hCG priming positively correlated with the subsequent yield of oocytes (FIG. 10). […]
Optimal stimulation protocols giving the best chance of producing oocytes capable of producing NT-ESCs using SCNT were sought. The impact of GnRH agonists and antagonists used to suppress the pituitary function of egg donors were first assessed. Prior to stimulations, the anti-mullerian hormone (AMH) level and antral follicle counts (AFC) were measured for each individual egg donor (Table S3). […]

[2] = Ovarian stimulation of egg donors under different pituitary suppression regimens; type: in vivo, human; conditions: antagonist 6 cycles, agonist 4 cycles
Protocol: Optimal stimulation protocols giving the best chance of producing oocytes capable of producing NT-ESCs using SCNT were sought. The impact of GnRH agonists and antagonists used to suppress the pituitary function of egg donors were first assessed. Prior to stimulations, the anti-mullerian hormone (AMH) level and antral follicle counts (AFC) were measured for each individual egg donor (Table S3). Donors with higher AMH and AFC profiles are associated with high ovarian reserve and received the GnRH agonist Lupron® (4 cycles) while the remaining donors were provided with the GnRH antagonist (ganirelix, 6 cycles) (Table 3).
Ovarian stimulation protocols followed established clinical IVF guidelines as we described previously (Tachibana et al, 2013 supra). Briefly, a combination of recombinant follicle stimulating hormone (rFSH) and human menopausal gonadotropins (hMG) and either GnRH agonist (Lupron®, Tap Pharmaceutical Products, Lake Forest, Ill.) or antagonist (Ganirelix®, Merck & Co, Whitehouse Station, N.J.) were given. Human chorionic gonadotropin (hCG) was prescribed to trigger oocyte maturation. Self administration of injectable rFSH (sc, Follistim®, Merck & Co, Whitehouse Station, N.J.) commenced on cycle day 2 or 3 and continued for approximately 8-12 days. The starting gonadotropin dose was 75-125 IU/day and 1-2 A hMG (sc, Menopur®, Ferring Pharmaceuticals, Inc. Parsippany, N.J.); the dose was adjusted per individual response using an established step-down regimen until the day of hCG injection. Ovarian response and follicular growth were monitored by transvaginal ultrasound and measurements of serum estradiol levels. When two or more follicles reached >18 mm in diameter, subjects received hCG ([…], sc, Ovidrel®, EMDSerono, Rockland, Mass.) to trigger maturation. Thirty-six hours following hCG injection, subjects underwent oocyte retrieval via transvaginal follicular aspirations.

monkey SCNT blastocysts = assay: Monkey NT-ESC isolation after treatment with TSA; type: cell-based, rhesus macaque
Protocol: (§1) However, the quality of such blastocysts and their potential to give rise to stable ESCs remained unknown until this current disclosure. A total of 16 monkey SCNT blastocysts produced with TSA treatment were plated on mitotically inactivated mouse embryonic fibroblast (mEF) feeders. None of these blastocysts produced NT-ESC lines (Table 1). Lower TSA concentrations as well as shorter exposure times to TSA had no effect on monkey SCNT blastocyst development and ESC isolation.
(§2) Oocyte collections, SCNT, embryo culture and NT-ESC isolation procedures were performed as previously described (Byrne et al, 2007 supra; Sparman et al., 2009, supra; Sparman et al, 2010 supra).

Monkey SCNT embryo [3] = assay: Monkey SCNT embryo development after treatment with trichostatin A (TSA); type: cell-based, rhesus macaque
Protocol: as §1, §2

Monkey SCNT embryo [4] = conditions: 37.5 nM TSA; from 4% without; cited from earlier work
human SCNT embryos [5] = assay: Human SCNT with caffeine during enucleation and fusion: spindle formation and blastocyst development; type: cell-based
Protocol: As expected, somatic cell nuclei introduced into oocyte cytoplasts under these conditions efficiently formed spindle-like structures detectable under birefringence microscope (83.3%, 10/12) (FIG. 2D). […] Human SCNT blastocysts in this group contained visible, prominent ICMs similar to that observed for IVF embryos (FIG. 2E).
Enucleation of MII spindles were performed as described previously (Tachibana et al., 2013 supra). […] The droplet was covered with tissue culture oil and oocytes maintained at 37° C. for 10-15 min before spindle removal. The dish was then mounted on the stage of an inverted microscope (Olympus IX71®) equipped with a stage warmer (http://www.tokaihit.com) Narishige micromanipulators, Oosight™ Imaging System (www.cri-inc.com) and a laser objective (www.hamiltonthorne.com). An oocyte was positioned by a holding pipette so that the spindle was situated between the 2 o'clock and 4 o'clock position. The zona pellucida next to the spindle was drilled with a laser pulse and an enucleation pipette was inserted through the opening. A small amount of cytoplasm surrounded by plasma membrane and contacting spindle was aspirated into the pipette. Next, a disaggregated fibroblast was aspirated into a micropipette and briefly transferred to the drop containing HVJ-E extract (Ishihara Sangyo Kaisha Ltd). […]

[6] = TSA 10 nM, 12 h, 23 plated blastocysts

## CCN=C(NCC)NCCCC[C@H](NC(=O)[C@H](CC(C)C)NC(=O)[C@@H](CCCCNC(=NCC)NCC)NC(=O)[C@H](Cc1ccc(O)cc1)NC(=O)[C@H](CO)NC(=O)[C@@H](Cc1cccnc1)NC(=O)[C@@H](Cc1ccc(Cl)cc1)NC(=O)[C@@H](Cc1ccc2ccccc2c1)NC(C)=O)C(=O)N1CCC[C@H]1C(=O)N[C@H](C)C(N)=O [GnRH antagonist, ganirelix] (Ac-[d2Nal][dPhe(4-Cl)][d3Pal]SY[d(hArg(Et2))]L[hArg(Et2)]P[dA]-NH2)
Human SCNT embryos [1]
  NT-ESC lines derived: six
[2]
  # oocytes (MII oocytes collected per cycle, mean±SD): 11.7±5.6
  Peak E2: 2568.2 ± 806.1

## CC(/C=C/C(=O)NO)=C\[C@@H](C)C(=O)c1ccc(N(C)C)cc1 [TSA, trichostatin A]
Monkey SCNT blastocysts; TSA 5 nM, 12 h, 7 plated blastocysts
  # NT-ESCs: 0
Monkey SCNT blastocysts; [6]
  # NT-ESCs: 3
  # NT-ESCs (%): 13%
Monkey SCNT blastocysts; TSA 10 nM, 24 h, 4 plated blastocysts
  # NT-ESCs: 0
Monkey SCNT embryo [3]; TSA 5 nM for 12 h, N 212
  8-cell (%): (92.8) %
  8-cell, number: 192
  Blastocysts (%): 14.5%
  Blastocysts, number: 30
  CM (%): (26.0) %
  CM, number: 58
  PN (%): (98.6) %
  PN, number: 207
  fused (%): (99.1) %
  fused, number: 210
Monkey SCNT embryo [3]; TSA 10 nM for 12 h, N 571
  8-cell (%): (93.7) %
  8-cell, number: 494
  Blastocysts (%): 18.8%
  Blastocysts, number: 99
  CM (%): (27.9) %
  CM, number: 147
  PN (%): (94.4) %
  PN, number: 535
  fused (%): (99.3) %
  fused, number: 567
Monkey SCNT embryo [3]; TSA 10 nM for 24 h, N 108
  8-cell (%): (97.1) %
  8-cell, number: 100
  Blastocysts (%): 24.3%
  Blastocysts, number: 25
  CM (%): (32.0) %
  CM, number: 33
  PN (%): (100) %
  PN, number: 104
  fused (%): (95.4) %
  fused, number: 104
Monkey SCNT embryo [3]; TSA 37.5 nM for 24 h, N 511
  8-cell (%): (90.3) %
  8-cell, number: 418
  Blastocysts (%): 18.4%
  Blastocysts, number: 85
  CM (%): (23.1) %
  CM, number: 107
  PN (%): (99.0) %
  PN, number: 498
  fused (%): (98.4) %
  fused, number: 503
Monkey SCNT embryo [3]; reducing TSA concentration to 10 nM or shortening exposure from 24 h to 12 h
  effect on blastocyst rates: did not affect blastocyst rates
Monkey SCNT embryo [4]
  development of monkey SCNT embryos to blastocysts: 18%

## Cn1c(=O)c2c(ncn2C)n(C)c1=O [caffeine]
Human SCNT embryos [5]; 1.25 mM caffeine during enucleation and fusion
  blastocyst development of caffeine treated embryos: 23.5%
Human SCNT embryos [5]; 1.25 mM caffeine during enucleation and somatic cell fusion, 10/12
  somatic cell nuclei forming spindle-like structures: 83.3%

## CCNC(=O)[C@@H]1CCCN1C(=O)[C@H](CCCNC(=N)N)NC(=O)[C@H](CC(C)C)NC(=O)[C@@H](CC(C)C)NC(=O)[C@H](Cc1ccc(O)cc1)NC(=O)[C@H](CO)NC(=O)[C@H](Cc1c[nH]c2ccccc12)NC(=O)[C@H](Cc1c[nH]cn1)NC(=O)[C@@H]1CCC(=O)N1 [GnRH agonist]
Human SCNT embryos [1]
  SCNT embryo development beyond the 8-cell stage: impaired
[2]
  Peak E2: 2709 ± 1597.3
